Results taken from ChEMBL document CHEMBL1152602, “A new therapeutic approach in Parkinson's disease: some novel quinazoline derivatives as dual selective phosphodiesterase 1 inhibitors and anti-inflammatory agents” (Bioorg Med Chem, 2009).

Legend:
[1] = Inhibition of PDE1
Rattus norvegicus [2] = assay: Antiinflammatory activity in Sprague-Dawley rat assessed as inhibition of carrageenan-induced paw edema at 50 mg/kg, po treated 60 mins before carrageenan challenge measured after 90 mins; assay type: functional
Rattus norvegicus [3] = assay: Antiinflammatory activity in Sprague-Dawley rat assessed as inhibition of carrageenan-induced paw edema at 50 mg/kg, po treated 60 mins before carrageenan challenge measured after 180 mins; assay type: functional
Rattus norvegicus [4] = assay: Antiinflammatory activity in Sprague-Dawley rat assessed as inhibition of carrageenan-induced paw edema at 50 mg/kg, ip treated 60 mins before carrageenan challenge measured after 90 mins; assay type: functional; details: route intraperitoneal
Rattus norvegicus [5] = assay: Antiinflammatory activity in Sprague-Dawley rat assessed as inhibition of carrageenan-induced paw edema at 50 mg/kg, ip treated 60 mins before carrageenan challenge measured after 180 mins; assay type: functional; details: route intraperitoneal
Rattus norvegicus [6] = assay: Toxicity in Sprague-Dawley rat assessed as gastrointestinal ulceration at 200 mg/kg, po once daily for 5 days; assay type: organism-based; design: dose 200 mg/kg, route oral; details: in vivo, 120 h

| Structure (SMILES) | IC50 [1] [µM] | inhibition in vivo at 50 mg/kg (Rattus norvegicus [2]) [%] | inhibition in vivo at 50 mg/kg (Rattus norvegicus [3]) [%] | inhibition in vivo at 50 mg/kg (Rattus norvegicus [4]) [%] | inhibition in vivo at 50 mg/kg (Rattus norvegicus [5]) [%] | Activity (Rattus norvegicus [6]) |
| --- | --- | --- | --- | --- | --- | --- |
| COc1ccc(-c2csc3ncn4c(=O)c5ccccc5nc4c23)cc1 | 66.9 | 57 | 71 | 69 | 74 | Non-toxic |
| Cc1ccc(-c2cc(-c3ccc(Cl)cc3)c3c(ncn4c(=O)c5ccccc5nc34)n2)cc1 | 98.2 | 37 | 49 | 38 | 53 |  |
| Cc1ccc(-c2cc(-c3ccc(Cl)cc3)c3c(ncn4c(=O)c5cc(Br)ccc5nc34)n2)cc1 | 66.4 | 80 | 87 | 82 | 89 |  |
| O=c1c2cc(Br)ccc2nc2c3c(-c4ccccc4)cc(-c4ccc(Cl)cc4)nc3ncn12 | 95.1 | 67 | 77 | 69 | 80 | Non-toxic |
| COc1ccc(-c2cc(-c3ccccc3)nc3ncn4c(=O)c5cc(Br)cc(Br)c5nc4c23)cc1 | 33.7 | 76 | 82 | 78 | 86 | Non-toxic |
| Cc1ccc(-c2cc(Cc3ccco3)c3c(ncn4c(=O)c5ccccc5nc34)n2)cc1 | 56.4 | 11 | 22 | 6 | 20 |  |
| COc1ccc(-c2cc(-c3cccc([N+](=O)[O-])c3)c3c(ncn4c(=O)c5cc(Br)ccc5nc34)n2)cc1 | 101 | 12 | 25 | 13 | 30 |  |
| O=c1c2cc(Br)cc(Br)c2nc2c3c(-c4ccc(Cl)cc4)csc3ncn12 | 83.5 | 2 | 10 | 2 | 17 |  |
| COc1ccc(-c2cc(-c3cccc([N+](=O)[O-])c3)c3c(ncn4c(=O)c5ccccc5nc34)n2)cc1 | 39.9 | 3 | 9 | 3 | 16 |  |
| Cc1ccc(-c2cc(-c3ccccc3)nc3ncn4c(=O)c5cc(Br)cc(Br)c5nc4c23)cc1 | 52.4 | 59 | 70 | 62 | 72 | Non-toxic |
| Cc1ccc(-c2cc(-c3ccc(Cl)cc3)c3c(ncn4c(=O)c5cc(Br)cc(Br)c5nc34)n2)cc1 | 57.6 | 72 | 80 | 78 | 83 |  |
| Cc1sc2ncn3c(=O)c4cc(Br)cc(Br)c4nc3c2c1C | 95.7 | 10 | 22 | 11 | 27 |  |
| COc1ccc(-c2cc(-c3ccccc3)nc3ncn4c(=O)c5cc(Br)ccc5nc4c23)cc1 | 76.6 | 26 | 41 | 28 | 44 |  |
| Cc1sc2ncn3c(=O)c4cc(Br)ccc4nc3c2c1C | 146 | 63 | 71 | 66 | 76 |  |
| O=c1c2ccccc2nc2c3c(-c4ccccc4)cc(-c4ccc(Cl)cc4)nc3ncn12 | 80.6 | 18 | 26 | 18 | 34 |  |
| O=c1c2cc(Br)cc(Br)c2nc2c3c4c(sc3ncn12)CCCC4 | 104 | 5 | 15 | 4 | 21 |  |
| O=c1c2ccccc2nc2c3c(-c4ccc(Cl)cc4)csc3ncn12 | 124 | 37 | 53 | 42 | 57 | Non-toxic |
| Cc1ccc(-c2csc3ncn4c(=O)c5cc(Br)cc(Br)c5nc4c23)cc1 | 61.9 | 20 | 33 | 22 | 37 |  |
| O=c1c2ccccc2nc2c3c(-c4ccc([N+](=O)[O-])cc4)cc(-c4ccc([N+](=O)[O-])cc4)nc3ncn12 | 83.7 | 5 | 11 | 11 | 23 |  |

| Structure (SMILES) | IC50 [1] [µM] | inhibition in vivo at 50 mg/kg (Rattus norvegicus [2]) [%] | inhibition in vivo at 50 mg/kg (Rattus norvegicus [3]) [%] | inhibition in vivo at 50 mg/kg (Rattus norvegicus [4]) [%] | inhibition in vivo at 50 mg/kg (Rattus norvegicus [5]) [%] | Activity (Rattus norvegicus [6]) |
| --- | --- | --- | --- | --- | --- | --- |
| Cc1ccc(-c2cc(-c3ccccc3)nc3ncn4c(=O)c5ccccc5nc4c23)cc1 | 91.8 | 8 | 15 | 8 | 20 |  |
| O=c1c2cc(Br)cc(Br)c2nc2c3c(-c4ccccc4)cc(-c4ccc(Cl)cc4)nc3ncn12 | 78 | 28 | 42 | 30 | 47 |  |
| O=c1c2cc(Br)cc(Br)c2nc2c3c(-c4ccc([N+](=O)[O-])cc4)cc(-c4ccc([N+](=O)[O-])cc4)nc3ncn12 | 72.5 | 46 | 54 | 47 | 56 |  |
| O=c1c2ccccc2nc2c3c4c(sc3ncn12)CCCC4 | 228 | 70 | 75 | 71 | 81 | Non-toxic |
| O=c1c2cc(Br)ccc2nc2c3c(-c4ccc([N+](=O)[O-])cc4)cc(-c4ccc([N+](=O)[O-])cc4)nc3ncn12 | 101 | 10 | 22 | 11 | 28 |  |
| O=c1c2cc(Br)ccc2nc2c3c(-c4ccc(Cl)cc4)csc3ncn12 | 90.5 | 26 | 44 | 29 | 50 |  |
| COc1ccc(-c2csc3ncn4c(=O)c5cc(Br)cc(Br)c5nc4c23)cc1 | 60.5 | 15 | 29 | 16 | 31 |  |
| O=c1c2cc(Br)ccc2nc2c3c4c(sc3ncn12)CCCC4 | 128 | 60 | 68 | 63 | 71 |  |
| COc1ccc(-c2cc(-c3cccc([N+](=O)[O-])c3)c3c(ncn4c(=O)c5cc(Br)cc(Br)c5nc34)n2)cc1 | 72 | 65 | 74 | 68 | 78 | Non-toxic |
| Cc1ccc(-c2csc3ncn4c(=O)c5ccccc5nc4c23)cc1 | 230 | 48 | 62 | 51 | 68 | Non-toxic |
| Cc1ccc(-c2csc3ncn4c(=O)c5cc(Br)ccc5nc4c23)cc1 | 85.3 | 40 | 52 | 42 | 56 |  |
| COc1ccc(-c2cc(-c3ccccc3)nc3ncn4c(=O)c5ccccc5nc4c23)cc1 | 72.1 | 7 | 18 | 8 | 22 |  |
| Cc1ccc(-c2cc(Cc3ccco3)c3c(ncn4c(=O)c5cc(Br)ccc5nc34)n2)cc1 | 72.5 | 13 | 37 | 24 | 41 |  |
| Cc1ccc(-c2cc(-c3ccccc3)nc3ncn4c(=O)c5cc(Br)ccc5nc4c23)cc1 | 78.1 | 57 | 68 | 60 | 70 | Non-toxic |
| COc1ccc(-c2csc3ncn4c(=O)c5cc(Br)ccc5nc4c23)cc1 | 82.2 | 50 | 59 | 53 | 70 |  |
| Cc1sc2ncn3c(=O)c4ccccc4nc3c2c1C | 295 | 74 | 84 | 76 | 86 | Non-toxic |
| COc1ccc2c(c1)c(CC(=O)O)c(C)n2C(=O)c1ccc(Cl)cc1 [INDOMETHACIN] |  | 72 | 79 | 76 | 83 | Toxic |
| CC(C)Cn1c(=O)n(C)c(=O)c2nc[nH]c21 [ISOBUTYLMETHYLXANTHINE] | 24.7 |  |  |  |  |  |
